Measurements taken from a melting point compilation (Tetko et al.; mined from patent text by program, amines drawn as free bases though some values may be those of a salt).

For Cc1ccc(-c2ccc(C(=O)Nc3ccc4nc(CN(C)C)ccc4c3)cn2)cc1, the melting point was 220 to 222 °C. With O=C(O)C(Cc1ccccc1)Cc1ccc([N+](=O)[O-])cc1 (centres undefined) the melting point was 104 to 105 °C. CCC(c1oc2ccccc2c(=O)c1-c1ccc(F)cc1)n1cnc2c(N)ncnc21 (centres undefined) gave a melting point of 223 to 227 °C. Oc1ccc(N2CCN(c3ccncc3)CC2)cc1 gave a melting point of 288 to 290 °C. Molecule CC(C)n1cc(C(=O)O)c(=O)c2cc(F)c(F)c(F)c21 has a melting point of 256 to 260 °C. With O=[N+]([O-])c1oc2ccc(CN3CCN(c4ccccc4)CC3)cc2c1-c1ccccc1 the melting point was 155 to 157 °C. CN(CCN(O)C(N)=O)Cc1cccc(Oc2ccc(Cl)cc2)c1 showed a melting point of 111 to 113 °C. With CCn1c(=O)n(O)c(=O)c2cc(F)c(N3CCCCC3)cc21 the melting point was 173 to 175 °C. Cc1cccc(C)c1NC(=O)CN1CCN(CC(O)C2COc3ccccc3O2)CC1 (centres undefined) showed a melting point of 175 to 176 °C. With Oc1ccc(Nc2ncc3ncc(-c4ccc(O)cc4)cc3n2)cc1 the melting point was over 268 °C. Work on FC(F)(F)c1cccc(N2CCC(N=Cc3ccccn3)=N2)c1 yielded a melting point of 156 °C. Work on CCOC(=O)N1CCc2[nH]cc3c(=O)n(-c4ccccc4)nc-3c2C1 yielded a melting point of 236 to 238 °C. O=C(NC1CC1)c1nc(-c2ccccc2)c(-c2ccc(=O)n(Cc3ccccc3)n2)s1 gave a melting point of 151 to 152 °C. For CC(=O)CN1C(=O)c2ccccc2C1=O, the melting point was 92 to 94 °C. Molecule CCCCCCCCCCCCn1nnc(C(=O)O)n1 has a melting point of 122 to 124 °C. Work on NC(=O)c1c(I)c(C(=O)NC(CO)CO)c(I)c(C(=O)NC(CO)CO)c1I yielded a melting point of 246 to 252 °C. For O=C(OCCN1CCN(CCN2CCOCC2)CC1)c1ccc(O)cc1, the melting point was 176 to 178 °C. Molecule Cc1nc2cnccc2n1-c1ccc(Cn2nnc3ccccc32)cc1 has a melting point of 126 to 127 °C. For Cc1c(C(=O)O)cnn1-c1cccc(Cl)c1, the melting point was 145 °C. Work on CC1C[C@@H]2NC[C@@H](NC(=O)OC(C)(C)C)[C@@H]2O1 (relative stereo) yielded a melting point of 69 to 72 °C. CCCCCS(=O)(=O)NC(=O)OCc1ccc(OC(C)C)cc1Oc1ncc(C(F)(F)F)cc1Cl gave a melting point of 70 to 73 °C. Molecule Cc1c(N2CC(O)C2)c(F)cc2c(=O)c(C(=O)O)cn(C3CC3)c12 has a melting point of 260 to 262 °C. In the case of CCCCCCc1cc2c(s1)NC(=O)CN=C2c1ccccc1Cl, the melting point is reported as 141 to 143 °C. With COc1cc(C(=O)CS(C)=O)c(N)c(OC)c1OC (centres undefined) the melting point was 102 to 104 °C. Molecule CCOC(=O)c1ccc(NC(=O)C=CC=C(c2ccc(Cl)cc2)c2ccc(Cl)cc2)cc1 has a melting point of 216 to 218 °C. Work on CCOC(=O)c1cncn1C1CC(C)(C)Oc2ccccc21 (centres undefined) yielded a melting point of 80.9 °C. With N#Cc1cc2c([nH]c1=O)CCc1ccccc1-2 the melting point was 301 to 303 °C. CC(C)(S)[C@H]1C[C@H](C(=O)O)CS1 (relative stereo) gave a melting point of 97 to 98.3 °C. CCCC(=O)OC(C)OC(=O)Nc1ccc(Cl)cc1 (centres undefined) gave a melting point of 52 to 54 °C. In the case of CC(C)[C@H](NC(=O)CS)C(=O)N1CCC[C@H]1C(=O)O, the melting point is reported as 162 to 165 °C. Work on CCCCCCN1CCC(C(=O)NCC)(c2ccccc2)CC1 yielded a melting point of 92 to 94 °C. Work on CC(C)CCCC(C)C1CC(=O)C2=C3C(F)CC4CC(OC(=O)c5ccccc5)CCC4(C)C3CCC21C (centres undefined) yielded a melting point of 144 to 145 °C. Cc1cc(NC(=O)c2cnccn2)nc(C)c1[N+](=O)[O-] showed a melting point of 158 °C. Molecule NNC(=O)Cc1cccc(Cl)n1 has a melting point of 220 to 225 °C. C=CCOc1ccc(-c2cccc(C#N)c2)cc1 showed a melting point of 80 to 90 °C. With CS(=O)(=O)CCC(=O)Nc1ccc(OCC(O)CO)cc1 (centres undefined) the melting point was 160 to 162 °C. Molecule O=C(NCc1cccnc1)c1ccc2n1Cc1ccccc1N(C(=O)c1ccc3c(c1)Cc1ccccc1-3)C2 has a melting point of 116 to 119 °C. Molecule Cc1cccc(O[C@@H]2CN(Cc3ccccc3)C[C@H]2O)c1C (relative stereo) has a melting point of 100 to 104 °C. For CCOC(=O)CC(=O)c1cc(F)c(N2CCC(N)C2)nc1Nc1ccc(F)cc1F (centres undefined), the melting point was 140 to 142 °C. Nc1ccc2ccc(Oc3ccccc3F)nc2n1 gave a melting point of 206 °C. CCOc1cc(Cl)ccc1C=NNC(=N)NN=Cc1ccc(Cl)cc1OCC showed a melting point of 180 to 182 °C. Work on COC(=O)c1nn(Cc2ccc(Cl)cc2Cl)c2ccccc12 yielded a melting point of 168 to 170 °C. Nc1cccc(C#CC=Cc2cccc(N)c2)c1 showed a melting point of 105 to 106 °C. Molecule CC1(C)Oc2ccccc2C(c2ccc[nH]c2=O)C1O (centres undefined) has a melting point of 244 to 246 °C. In the case of O=C1CCC(N2Cc3c(OCc4ccc(CN5CCC(c6cccnc6)CC5)cc4)cccc3C2=O)C(=O)N1 (centres undefined), the melting point is reported as 161 to 163 °C. Work on O=C1CCC(c2ccc(OCC3CO3)c(Cl)c2)=NN1 (centres undefined) yielded a melting point of 148 to 149 °C. In the case of Cc1ccc(Oc2c(-c3ccc(S(C)(=O)=O)cc3)oc(C(F)F)cc2=O)cc1, the melting point is reported as 160 °C. In the case of COc1cc(-n2nc(C(F)(F)F)cc2-c2ccc(S(C)(=O)=O)cc2)ccc1Br, the melting point is reported as 156 to 157 °C. In the case of O=Cc1ccc2c(c1)OC(c1ccccc1)(c1ccccc1)O2, the melting point is reported as 157 to 159 °C. Cc1oc(C)c2c(=O)c3c(=O)ccc(=O)c=3c(=O)c12 showed a melting point of over 270 °C. COc1cc(NC(=S)NC(=O)/C=C/c2ccco2)ccc1-c1cc2ccccc2oc1=O showed a melting point of 227 to 230 °C. Work on Nc1nc(OC(F)(F)F)cc(C(F)(F)F)n1 yielded a melting point of 47 to 49 °C. Work on C#CC1(OC(=O)c2ccccc2)C(COC(=O)c2ccc(Cl)cc2)OC(n2ccc(=O)[nH]c2=O)C1OC(=O)c1ccccc1 (centres undefined) yielded a melting point of 158 to 160 °C. Molecule CCOC(=O)/C=C(C)/C(F)=C/C=C(C)/C=C/c1c(Cl)cc(OC)c(C)c1Cl has a melting point of 127 to 132 °C. Work on CCCCCCC(O)CCCCCCCCCCC(=O)NCCCC (centres undefined) yielded a melting point of 100 to 102 °C. CC(=O)NCCC1=CCc2ccc3nc(C)oc3c21 showed a melting point of 154 to 156 °C. CCCN1C(=O)N2C[C@@H](Cc3ccccc3)N=C2c2[nH]c(CSCC)nc21 showed a melting point of 178 to 180 °C. Cc1csc2c(=O)n(N=Cc3ccc(Cl)cc3)cnc12 gave a melting point of 213 to 215 °C. For CC(C)C(=O)N[C@@H](CSC(=O)c1ccccc1)C(=O)NCCSC(=O)C(C)C, the melting point was 155 to 157 °C. For CCCc1c(OCCCOc2cccc(NC(=O)C(=O)O)c2C)ccc(C(C)=O)c1O, the melting point was 146 to 148 °C. Molecule Oc1cc2c(cc1Sc1ccccc1)OCC2 has a melting point of 80 to 81 °C. Molecule CNc1nc(-c2ccc(OCc3ccccc3)cc2)no1 has a melting point of 148 to 150 °C. With Cc1c(C=O)cccc1-n1cccc1 the melting point was 82 °C. For Cn1nc(C(=O)NCc2ccc(Cl)cc2)c(=O)c2cc(C#CCO)ccc21, the melting point was 229 to 231 °C. In the case of CC(C)c1nc(CCCO)n(C)c1Sc1cc(Cl)cc(Cl)c1, the melting point is reported as 124 to 125 °C. With N#CC(CF)(CF)CF the melting point was 70 to 75 °C. Work on Oc1ccc(C(F)(F)F)cc1C=S yielded a melting point of 50 to 52 °C. Work on CC(=O)CSc1nnnn1C yielded a melting point of 31 °C. For CC[Si](CC)(CC)OC1CC2=CCC3C4CCC(=O)C4(C)CCC3C2(C)C(O[Si](CC)(CC)CC)C1 (centres undefined), the melting point was 99 to 100 °C. CCC(C)(C)Cc1ccc(C(=O)O)c(=O)[nH]1 gave a melting point of 170 to 172 °C. N#CC(Cn1ccnc1)(c1ccccc1)c1ccccn1 (centres undefined) gave a melting point of 83 to 85 °C. With Cc1oc(-c2ccccc2)nc1CCOc1ccc(COc2ccccc2CC(=O)O)cn1 the melting point was 159 to 160 °C. Molecule COc1ccc(S(=O)(=O)Nc2ccc(OC)nc2Nc2ccccc2)cc1 has a melting point of 187 to 188 °C. O=C(O)CCCCCCc1ccc2ccccc2c1[N+](=O)[O-] showed a melting point of 84 to 89 °C.
